Experimental data: ChEMBL document CHEMBL3639120, “Pyridone and aza-pyridone compounds and methods of use” (2013)

Molecular target: Tyrosine-protein kinase BTK (Homo sapiens, UniProt Q06187)
Experiment: Biochemical Assay: A generalized procedure for a standard biochemical Btk Kinase Assay that can be used to test Formula I compounds. Alternatively, the Lanthascreen assay can be used to evaluate Btk activity through quantification of its phosphorylated peptide product. The FRET (Fluorescence Resonance Energy Transfer) that occurs between the fluorescein on the peptide product and the terbium on …

Chain of Tyrosine-protein kinase BTK (Q06187 whole entry): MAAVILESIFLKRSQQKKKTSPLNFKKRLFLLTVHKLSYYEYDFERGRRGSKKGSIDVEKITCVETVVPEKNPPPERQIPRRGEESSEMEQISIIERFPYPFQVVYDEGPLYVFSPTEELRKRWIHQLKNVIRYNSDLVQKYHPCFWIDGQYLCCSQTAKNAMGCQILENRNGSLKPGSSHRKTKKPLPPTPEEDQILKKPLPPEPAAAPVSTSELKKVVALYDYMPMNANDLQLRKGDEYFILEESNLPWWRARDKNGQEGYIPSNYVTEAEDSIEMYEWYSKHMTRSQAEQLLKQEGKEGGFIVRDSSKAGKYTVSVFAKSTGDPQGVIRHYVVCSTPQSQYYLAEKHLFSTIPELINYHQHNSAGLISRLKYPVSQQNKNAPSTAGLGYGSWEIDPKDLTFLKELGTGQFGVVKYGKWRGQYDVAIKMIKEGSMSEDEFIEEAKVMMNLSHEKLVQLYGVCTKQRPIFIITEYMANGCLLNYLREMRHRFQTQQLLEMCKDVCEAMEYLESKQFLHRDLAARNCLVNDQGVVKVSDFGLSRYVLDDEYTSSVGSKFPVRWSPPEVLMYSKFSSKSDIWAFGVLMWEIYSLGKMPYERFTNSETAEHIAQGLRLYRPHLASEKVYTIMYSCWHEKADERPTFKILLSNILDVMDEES

- IC50: 5.2 nM
SMILES: Cn1cc(-c2cccc(N3CCn4c(cc5c4CC(C)(C)C5)C3=O)c2CO)cc(Nc2ccc(N3CCN(C4COC4)CC3)cn2)c1=O
